Measurements: paper PMC3880613 (Journal of medicinal chemistry, 2013)

What was measured:
PC43-10 cells (hRFC) = details: read-out: IC50 growth inhibition PC43-10; cited from earlier work
[1] = tested on: KB human nasopharyngeal carcinoma cells (hRFC/FRα/hPCFT); assay: Growth inhibition assay, KB human tumor cells; details: 96 h, read-out: IC50 growth inhibition KB
FRα = FRα (Homo sapiens, UniProt P15328); assay: FR binding assay, competition with [3H]folic acid on RT16 cells; details: RT16 CHO cells, pH 7.4, [3H]folic acid 50 nM, 0°C; Figure 3, in words
FRβ = FRβ (Homo sapiens, UniProt P14207); assay: FR binding assay, competition with [3H]folic acid on D4 cells; details: D4 CHO cells, pH 7.4, [3H]folic acid 50 nM, 0°C; Figure 3, in words
Chain of FRβ (P14207 17-255): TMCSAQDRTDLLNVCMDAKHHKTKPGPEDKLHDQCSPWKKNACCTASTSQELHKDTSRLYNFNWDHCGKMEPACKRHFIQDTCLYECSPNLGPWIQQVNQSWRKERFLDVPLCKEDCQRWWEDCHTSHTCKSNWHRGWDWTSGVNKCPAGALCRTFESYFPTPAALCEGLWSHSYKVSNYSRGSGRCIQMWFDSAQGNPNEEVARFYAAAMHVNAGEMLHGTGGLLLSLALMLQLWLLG

Chain of FRα (P15328 25-257): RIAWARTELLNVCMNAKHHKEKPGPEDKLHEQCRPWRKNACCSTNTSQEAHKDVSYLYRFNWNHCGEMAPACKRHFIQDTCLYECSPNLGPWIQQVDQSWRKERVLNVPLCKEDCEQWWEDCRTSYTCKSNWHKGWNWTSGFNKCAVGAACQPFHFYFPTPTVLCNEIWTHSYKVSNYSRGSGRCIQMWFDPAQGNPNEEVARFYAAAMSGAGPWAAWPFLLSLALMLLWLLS

SMILES | IC50 [1] | Relative binding affinity to FRα (folic acid = 1.0) (FRα) | further results
Nc1nc2[nH]c(CCCCc3ccc(C(=O)N[C@@H](CCC(=O)O)C(=O)O)cc3)cc2c(=O)[nH]1 [2b] | – | – | IC50 (PC43-10 cells (hRFC)): > 1000 nM
Nc1nc2[nH]c(CCCCCCCCC(=O)N[C@@H](CCC(=O)O)C(=O)O)cc2c(=O)[nH]1 [3d, (S)-2-(9-(2-Amino-4-oxo-4,7-dihydro-3H-pyrrolo[2,3-d]pyrimidin-6-yl)nonanamido)pentanedioic acid] | – | approximating those for compounds 2a and 2b | Relative binding affinity to FRβ (folic acid = 1.0) (FRβ): approximating those for compounds 2a and 2b

The next lines start with results.

IC50 [1] | SMILES | Relative binding affinity to FRα (folic acid = 1.0) (FRα) | further results
> 1000 nM | Nc1nc2[nH]c(CCCCCC(=O)O)cc2c(=O)[nH]1 [7e, 6-(2-Amino-4-oxo-4,7-dihydro-3H-pyrrolo[2,3-d]pyrimidin-6-yl)hexanoic acid] | – | –
> 1000 nM | Nc1nc2[nH]c(CCCCCCCCC(=O)O)cc2c(=O)[nH]1 [7h, 9-(2-Amino-4-oxo-4,7-dihydro-3H-pyrrolo[2,3-d]pyrimidin-6-yl)nonanoic acid] | detectable binding | –
> 1000 nM | Nc1nc2[nH]c(CCCCCCC(=O)O)cc2c(=O)[nH]1 [7f, 7-(2-Amino-4-oxo-4,7-dihydro-3H-pyrrolo[2,3-d]pyrimidin-6-yl)heptanoic acid] | – | –
> 1000 nM | Nc1nc2[nH]c(CCCCCCCC(=O)O)cc2c(=O)[nH]1 [7g, 8-(2-Amino-4-oxo-4,7-dihydro-3H-pyrrolo[2,3-d]pyrimidin-6-yl)octanoic acid] | – | –
